Reference: patent US20040086504A1, “Cyr61 as a target for treatment and diagnosis of breast cancer” (priority 2003, published 2004)
Starred links: 1 amine or outer side, 2 acyl side, 3 side chain; linkers in the order of their positions; H or OH if unused. Positions of bridges follow the written chain, without caps; N, C: chain ends. Non-standard residues stand in square brackets, D forms with d. Residues, ends and D or L forms follow the SMILES beside them. Chains are numbered I, II in the order given. Actinocin(9to1) = Cc1c2oc3c(C)ccc(C(=O)[*:1])c3nc-2c(C(=O)[*:2])c(N)c1=O; NMeV = CN[C@H](C(=O)O)C(C)C; Sar = CNCC(=O)O

Legend:
Cyr61 [1] = assay: Cyr61 mRNA/protein expression in MDA-MB-453 cells (Northern/Western blot); format: cell-based, human; settings: for effect on DHT induction of Cyr61: co-treatment with 1 nM DHT
Cyr61 [2] = assay: Cyr61 mRNA/protein expression in T47D cells (Northern/Western blot)
Cyr61 [3] = assay: Cyr61 mRNA/protein expression in MCF-7 cells (Northern/Western blot); settings: for block of 17β-estradiol upregulation of Cyr61: co-treatment with 17β-estradiol
Cyr61 [4] = assay: Cyr61 mRNA expression in ZR-75-1 cells (Northern blot); format: cell-based, human
Experimental: (§1) Incubation and analysis were performed according to techniques described in Example 1.
(§2) Total cellular RNA was isolated from cultured adenocarcinoma cells by guanidium isothiocynate lysis followed by phenol/chloroform extraction.

Cyr61 [5] = assay: Cyr61 mRNA expression in MDA-MB-231 cells (Northern blot); format: cell-based, human; settings: AR- MDA-MB-231 cells
Experimental: as §1, §2

Compound: CC(C)(O)C(=O)Nc1ccc([N+](=O)[O-])c(C(F)(F)F)c1 [2-OH flutamide]
- effect on DHT induction of Cyr61 (Cyr61 [1]): completely abrogated

Compound: CCC(=O)[C@@]1(C)CC[C@H]2[C@@H]3CCC4=CC(=O)CCC4=C3CC[C@@]21C [R5020]
- induction of Cyr61 mRNA transcription (Cyr61 [2]): dose-dependent manner
- effects of EGF on mRNA transcription (Cyr61 [2]; with EGF): stimulates

Compound: C[C@@H]1C[C@@H]([C@H](O)CC2CC(=O)NC(=O)C2)C(=O)[C@@H](C)C1 [cycloheximide]
- Cyr61 mRNA on co-treatment with DHT compared to DHT treatment alone (Cyr61 [1]): significant overexpression
- effect on DHT induction of Cyr61 (Cyr61 [1]): not observed
- block of 17β-estradiol upregulation of Cyr61 (Cyr61 [3]): not

Compound: EGF: epidermal growth factor (NSDSECPLSHDGYCLHDGVCMYIEALDKYACNCVVGYIGERCQYRDLKWWELR; UniProt P01133 971-1023, looked up)
- time to maximal levels of Cyr61 mRNA (Cyr61 [4]): ≤ 0.5 h
- expression of Cyr61 (Cyr61 [5]): rapidly induced

Compound: C[C@]12CCC(=O)C[C@@H]1CC[C@@H]1[C@@H]2CC[C@]2(C)[C@@H](O)CC[C@@H]12 [DHT]
- maximum expression of Cyr61 mRNA and protein (Cyr61 [1]): 8 fold
- time of maximum expression of Cyr61 mRNA and protein (Cyr61 [1]): ≤ 0.5 h
- concentration of maximal expression of Cyr61 mRNA and protein (Cyr61 [1]; dose-dependent): 1.0 nM
- EC50 (Cyr61 [1]; read-out: EC50 for upregulation of Cyr61 mRNA and protein): ~0.3 nM
- induction of Cyr61 (Cyr61 [4]): lack of induction
- expression of Cyr61 (Cyr61 [5]): not enhanced

Compound: Cc1c2oc3c(C)ccc(C(=O)N[C@@H]4C(=O)N[C@H](C(C)C)C(=O)N5CCC[C@H]5C(=O)N(C)CC(=O)N(C)[C@@H](C(C)C)C(=O)O[C@@H]4C)c3nc-2c(C(=O)N[C@@H]2C(=O)N[C@H](C(C)C)C(=O)N3CCC[C@H]3C(=O)N(C)CC(=O)N(C)[C@@H](C(C)C)C(=O)O[C@@H]2C)c(N)c1=O [actinomycin D] (I: T[dV]P[Sar][NMeV] / II: T[dV]P[Sar][NMeV]; ester I:1-I:C, II:1-II:C; linker I:N-II:N via Actinocin(9to1))
- effect on DHT induction of Cyr61 (Cyr61 [1]): completely blocked
- block of R5020 upregulation of Cyr61 (Cyr61 [2]; co-treatment with R5020): fully blocked
- block of 17β-estradiol upregulation of Cyr61 (Cyr61 [3]): fully blocked

Compound: C[C@]12CC[C@@H]3c4ccc(O)cc4CC[C@H]3[C@@H]1CC[C@@H]2O [17β-estradiol]
- upregulation of Cyr61 mRNA (Cyr61 [3]): upregulation
- effects of EGF on mRNA transcription (Cyr61 [3]; with EGF): stimulates
